Some results are limits rather than exact numbers.

From patent publication US8158636B2, “Compounds and methods for kinase modulation, and indications therefor” (Plexxikon Inc., priority 2008, dated 2012) come the findings set out here.

What all share (format): biochemical
One assay concerns the target Fms (Homo sapiens, UniProt P07333). Kind of assay: Kinase activity assay, Fms. To be noted: Table 1h; read-out: activity toward kinase Fms, IC50. The source says: (§1) Assays for the activity of kinases, including, but not limited to, Fms, Kit, B-Raf, B-Raf V600E, c-Raf-1, and TrkA are known in the art, for example as described in US Patent Publication Number US20070032519 and U.S. patent application Ser. No. 11/473,347 (see also, PCT publication WO2007002433), the disclosures of which are hereby incorporated by reference with respect to such assays.

A further assay has as its target Kdr (Homo sapiens, UniProt P35968). Kind of assay: Kinase activity assay, Kdr. The following applies: Table 1i; read-out: activity toward kinase Kdr, IC50.
Excerpt: as §1

Another assay deals with Kit (Homo sapiens, UniProt P10721). The experiment in a line: Kinase activity assay, Kit. To be noted: Table 1j; read-out: activity toward kinase Kit, IC50.
Chain of Kit (P10721 26-976): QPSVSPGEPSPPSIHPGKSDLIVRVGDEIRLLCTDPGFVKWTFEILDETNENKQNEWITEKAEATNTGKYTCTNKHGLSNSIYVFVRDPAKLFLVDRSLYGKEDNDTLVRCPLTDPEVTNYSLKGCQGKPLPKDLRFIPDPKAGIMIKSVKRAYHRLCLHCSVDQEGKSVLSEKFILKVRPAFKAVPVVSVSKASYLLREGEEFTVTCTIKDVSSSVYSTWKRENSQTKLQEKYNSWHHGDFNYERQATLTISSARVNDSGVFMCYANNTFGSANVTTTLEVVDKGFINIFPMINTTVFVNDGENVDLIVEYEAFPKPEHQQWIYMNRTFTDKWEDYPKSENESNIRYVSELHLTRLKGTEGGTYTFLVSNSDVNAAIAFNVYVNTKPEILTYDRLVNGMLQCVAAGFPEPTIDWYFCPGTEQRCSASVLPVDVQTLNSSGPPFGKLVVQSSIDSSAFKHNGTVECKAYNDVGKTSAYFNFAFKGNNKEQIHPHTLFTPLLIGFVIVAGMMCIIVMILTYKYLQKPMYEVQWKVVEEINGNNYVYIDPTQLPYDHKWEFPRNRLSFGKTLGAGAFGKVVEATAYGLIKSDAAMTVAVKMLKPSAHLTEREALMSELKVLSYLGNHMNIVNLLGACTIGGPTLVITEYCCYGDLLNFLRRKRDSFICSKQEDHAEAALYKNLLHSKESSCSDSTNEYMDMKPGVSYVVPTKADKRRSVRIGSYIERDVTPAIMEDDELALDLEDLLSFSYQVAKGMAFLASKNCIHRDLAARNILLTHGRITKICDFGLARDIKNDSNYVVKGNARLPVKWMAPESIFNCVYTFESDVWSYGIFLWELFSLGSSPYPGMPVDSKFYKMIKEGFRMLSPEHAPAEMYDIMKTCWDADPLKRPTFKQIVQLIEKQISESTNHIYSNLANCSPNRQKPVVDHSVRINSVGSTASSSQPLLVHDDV
Excerpt: as §1

Chain of Fms (P07333 20-972): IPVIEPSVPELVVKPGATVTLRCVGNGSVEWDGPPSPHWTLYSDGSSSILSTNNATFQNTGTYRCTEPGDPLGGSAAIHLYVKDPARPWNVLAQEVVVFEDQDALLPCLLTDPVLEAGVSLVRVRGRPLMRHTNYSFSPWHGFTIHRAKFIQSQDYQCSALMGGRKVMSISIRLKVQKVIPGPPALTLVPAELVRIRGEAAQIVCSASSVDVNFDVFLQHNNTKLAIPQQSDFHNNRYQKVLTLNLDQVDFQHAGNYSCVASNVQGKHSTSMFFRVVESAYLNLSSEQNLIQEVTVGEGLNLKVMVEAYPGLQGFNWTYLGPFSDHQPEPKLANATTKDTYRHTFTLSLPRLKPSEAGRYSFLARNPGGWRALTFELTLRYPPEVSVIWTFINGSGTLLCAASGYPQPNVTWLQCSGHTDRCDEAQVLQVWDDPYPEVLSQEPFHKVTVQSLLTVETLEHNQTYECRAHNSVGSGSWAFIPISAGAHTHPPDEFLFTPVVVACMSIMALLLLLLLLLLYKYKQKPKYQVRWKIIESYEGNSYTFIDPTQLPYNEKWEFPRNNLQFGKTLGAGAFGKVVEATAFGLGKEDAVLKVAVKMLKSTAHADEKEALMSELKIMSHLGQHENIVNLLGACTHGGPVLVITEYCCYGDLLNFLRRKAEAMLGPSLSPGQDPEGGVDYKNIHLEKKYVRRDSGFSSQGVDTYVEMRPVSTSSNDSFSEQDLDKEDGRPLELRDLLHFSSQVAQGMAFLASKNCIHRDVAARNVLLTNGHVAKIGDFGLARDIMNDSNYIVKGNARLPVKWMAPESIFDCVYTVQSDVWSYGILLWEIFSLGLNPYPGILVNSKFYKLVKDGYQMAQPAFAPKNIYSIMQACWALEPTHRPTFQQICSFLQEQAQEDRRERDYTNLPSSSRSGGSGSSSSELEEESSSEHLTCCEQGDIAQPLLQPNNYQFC
Chain of Kdr (P35968 20-1356): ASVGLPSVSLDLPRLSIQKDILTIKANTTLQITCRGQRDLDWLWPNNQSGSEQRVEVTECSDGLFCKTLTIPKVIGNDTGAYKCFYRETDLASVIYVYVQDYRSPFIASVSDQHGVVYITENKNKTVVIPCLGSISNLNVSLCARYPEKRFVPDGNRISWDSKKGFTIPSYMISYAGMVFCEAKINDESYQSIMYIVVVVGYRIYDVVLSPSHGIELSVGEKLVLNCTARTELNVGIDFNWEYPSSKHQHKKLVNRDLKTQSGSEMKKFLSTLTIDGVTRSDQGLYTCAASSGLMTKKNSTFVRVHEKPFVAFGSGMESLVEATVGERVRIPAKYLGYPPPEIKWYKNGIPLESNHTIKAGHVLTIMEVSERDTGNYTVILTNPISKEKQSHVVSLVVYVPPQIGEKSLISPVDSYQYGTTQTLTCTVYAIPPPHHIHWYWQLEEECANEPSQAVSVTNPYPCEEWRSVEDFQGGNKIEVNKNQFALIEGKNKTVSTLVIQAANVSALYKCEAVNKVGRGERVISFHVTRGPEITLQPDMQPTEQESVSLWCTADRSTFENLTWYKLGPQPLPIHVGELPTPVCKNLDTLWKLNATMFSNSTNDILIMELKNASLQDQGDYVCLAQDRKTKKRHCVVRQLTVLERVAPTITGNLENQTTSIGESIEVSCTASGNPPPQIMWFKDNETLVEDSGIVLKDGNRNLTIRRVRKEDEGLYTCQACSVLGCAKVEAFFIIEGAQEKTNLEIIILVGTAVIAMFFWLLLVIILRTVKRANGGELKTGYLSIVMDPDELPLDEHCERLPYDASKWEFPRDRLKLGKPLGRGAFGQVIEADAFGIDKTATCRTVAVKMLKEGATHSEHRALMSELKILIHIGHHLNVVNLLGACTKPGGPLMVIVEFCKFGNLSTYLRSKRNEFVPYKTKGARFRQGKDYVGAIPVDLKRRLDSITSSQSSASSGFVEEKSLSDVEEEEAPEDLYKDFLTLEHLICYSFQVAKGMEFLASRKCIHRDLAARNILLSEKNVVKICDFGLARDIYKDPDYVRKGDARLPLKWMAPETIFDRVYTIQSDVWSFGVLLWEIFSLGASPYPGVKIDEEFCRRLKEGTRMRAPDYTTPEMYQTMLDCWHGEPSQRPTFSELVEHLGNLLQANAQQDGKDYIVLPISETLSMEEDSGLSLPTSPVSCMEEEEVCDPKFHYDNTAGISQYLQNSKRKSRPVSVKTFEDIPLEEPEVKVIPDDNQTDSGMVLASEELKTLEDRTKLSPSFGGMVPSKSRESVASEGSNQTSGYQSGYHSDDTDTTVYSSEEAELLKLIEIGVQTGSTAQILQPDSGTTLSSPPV

Take `Cc1cnccc1CNc1ncc(Cc2c[nH]c3ncncc23)cn1` [P-0034, (3-Methyl-pyridin-4-ylmethyl)-[5-(7H-pyrrolo[2,3-d]pyrimidin-5-ylmethyl)-pyrimidin-2-yl]-amine]: the 50% inhibitory concentration (IC50) (usually the concentration needed to halve the response being measured) on Fms is not above 10 µM.

`COc1ccc(CNc2ncc(Cc3c[nH]c4ncncc34)cn2)cn1` [P-0015, (6-Methoxy-pyridin-3-ylmethyl)-[5-(7H-pyrrolo[2,3-d]pyrimidin-5-ylmethyl)-pyrimidin-2-yl]-amine]: the half-maximal inhibitory concentration (IC50) at Fms, at Kdr and on Kit was not above 10 µM each time.

As to `COc1ncccc1CNc1ccc(Cc2c[nH]c3ncncc23)c(F)n1` [P-0026, [6-Fluoro-5-(7H-pyrrolo[2,3-d]pyrimidin-5-ylmethyl)-pyridin-2-yl]-(2-methoxy-pyridin-3-ylmethyl)-amine], the half-inhibitory concentration (IC50) at Fms, at Kdr and at Kit was not above 10 µM in each case.

As to `Fc1cc(CNc2ccc(Cc3c[nH]c4ncncc34)c(F)n2)ccn1` [P-0074, (2-Fluoro-pyridin-4-ylmethyl)-[6-fluoro-5-(7H-pyrrolo[2,3-d]pyrimidin-5-ylmethyl)-pyridin-2-yl]-amine], the IC50 on Fms and on Kdr was not above 10 µM each time.

Consider `Fc1nc(NCc2cnccc2C(F)(F)F)ccc1Cc1c[nH]c2ncncc12` [P-0018, [6-Fluoro-5-(7H-pyrrolo[2,3-d]pyrimidin-5-ylmethyl)-pyridin-2-yl]-(4-trifluoromethyl-pyridin-3-ylmethyl)-amine], for which the IC50 at Fms, at Kdr and on Kit was not above 10 µM each time.

On to `COc1ncccc1CNc1ncc(Cc2c[nH]c3ncncc23)cn1` [P-0084, (2-Methoxy-pyridin-3-ylmethyl)-[5-(7H-pyrrolo[2,3-d]pyrimidin-5-ylmethyl)-pyrimidin-2-yl]-amine], for which the IC50 at Fms and on Kit was not above 10 µM throughout.

`CCOc1ncccc1CNc1ncc(Cc2c[nH]c3ncncc23)cn1` [P-0085, (2-Ethoxy-pyridin-3-ylmethyl)-[5-(7H-pyrrolo[2,3-d]pyrimidin-5-ylmethyl)-pyrimidin-2-yl]-amine]: the IC50 at Fms, at Kdr and at Kit was not above 10 µM throughout.

On to `c1cc(CNc2ncc(Cc3c[nH]c4ncncc34)cn2)cc(N2CCOCC2)n1` [P-0036, (2-Morpholin-4-yl-pyridin-4-ylmethyl)-[5-(7H-pyrrolo[2,3-d]pyrimidin-5-ylmethyl)-pyrimidin-2-yl]-amine], for which the 50% inhibitory concentration (IC50) on Fms, at Kdr and on Kit was not above 10 µM throughout.

With `COc1ccncc1CNc1ccc(Cc2c[nH]c3ncncc23)c(F)n1` [P-0056, [6-Fluoro-5-(7H-pyrrolo[2,3-d]pyrimidin-5-ylmethyl)-pyridin-2-yl]-(4-methoxy-pyridin-3-ylmethyl)-amine], the IC50 at Fms was not above 10 µM.

As for `COc1cc(CNc2ccc(Cc3c[nH]c4ncncc34)c(F)n2)ccn1` [P-0023, [6-Fluoro-5-(7H-pyrrolo[2,3-d]pyrimidin-5-ylmethyl)-pyridin-2-yl]-(2-methoxy-pyridin-4-ylmethyl)-amine], the concentration for half-maximal inhibition (IC50) on Fms, at Kdr and on Kit was not above 10 µM each time.

`c1cc(CNc2ncc(Cc3c[nH]c4ncncc34)cn2)nc(N2CCOCC2)c1` [P-0031, (6-Morpholin-4-yl-pyridin-2-ylmethyl)-[5-(7H-pyrrolo[2,3-d]pyrimidin-5-ylmethyl)-pyrimidin-2-yl]-amine]: the 50% inhibitory concentration (IC50) on Fms, at Kdr and at Kit was not above 10 µM in each case.

Turning to `Clc1ccc(CNc2ncc(Cc3c[nH]c4ncncc34)cn2)cn1` [P-0029, (6-Chloro-pyridin-3-ylmethyl)-[5-(7H-pyrrolo[2,3-d]pyrimidin-5-ylmethyl)-pyrimidin-2-yl]-amine], the IC50 at Fms, at Kdr and on Kit was not above 10 µM each time.

Take `c1cc(CNc2ncc(Cc3c[nH]c4ncncc34)cn2)nc(N2CCCC2)c1` [P-0032, (6-Pyrrolidin-1-yl-pyridin-2-ylmethyl)-[5-(7H-pyrrolo[2,3-d]pyrimidin-5-ylmethyl)-pyrimidin-2-yl]-amine]: the IC50 at Fms, at Kdr and on Kit was not above 10 µM each time.

Regarding `Cc1cc(CNc2ncc(Cc3c[nH]c4ncncc34)cn2)ccn1` [P-0035, (2-Methyl-pyridin-4-ylmethyl)-[5-(7H-pyrrolo[2,3-d]pyrimidin-5-ylmethyl)-pyrimidin-2-yl]-amine], the half-inhibitory concentration (IC50) at Fms was not above 10 µM.

As for `CNc1ncc(CNc2ccc(Cc3c[nH]c4ncncc34)c(F)n2)cn1` [P-0042, (5-{[6-Fluoro-5-(7H-pyrrolo[2,3-d]pyrimidin-5-ylmethyl)-pyridin-2-ylamino]-methyl}-pyrimidin-2-yl)-methyl-amine], the IC50 at Fms is not above 10 µM.

Take `CCc1ccc(CNc2ncc(Cc3c[nH]c4ncncc34)cn2)nc1` [P-0033, (5-Ethyl-pyridin-2-ylmethyl)-[5-(7H-pyrrolo[2,3-d]pyrimidin-5-ylmethyl)-pyrimidin-2-yl]-amine]: the IC50 at Fms, on Kdr and on Kit was not above 10 µM each time.

`COCCc1ncc(CNc2ccc(Cc3c[nH]c4ncncc34)c(F)n2)cn1` [P-0080, [6-Fluoro-5-(7H-pyrrolo[2,3-d]pyrimidin-5-ylmethyl)-pyridin-2-yl]-[2-(2-methoxy-ethyl)-pyrimidin-5-ylmethyl]-amine]: the IC50 at Fms is not above 10 µM.

Take `Fc1nc(NCc2ccncc2Cl)ccc1Cc1c[nH]c2ncncc12` [P-0047, (3-Chloro-pyridin-4-ylmethyl)-[6-fluoro-5-(7H-pyrrolo[2,3-d]pyrimidin-5-ylmethyl)-pyridin-2-yl]-amine]: the IC50 at Fms and at Kdr was not above 10 µM in each case.

For `Fc1ncccc1CNc1ccc(Cc2c[nH]c3ncncc23)c(F)n1` [P-0068, (2-Fluoro-pyridin-3-ylmethyl)-[6-fluoro-5-(7H-pyrrolo[2,3-d]pyrimidin-5-ylmethyl)-pyridin-2-yl]-amine], the half-maximal inhibitory concentration (IC50) on Fms and on Kdr was not above 10 µM each time.

On to `Fc1nc(NCc2ccc(Cl)cn2)ccc1Cc1c[nH]c2ncncc12` [P-0027, (5-Chloro-pyridin-2-ylmethyl)-[6-fluoro-5-(7H-pyrrolo[2,3-d]pyrimidin-5-ylmethyl)-pyridin-2-yl]-amine], for which the IC50 at Fms, on Kdr and at Kit was not above 10 µM each time.

Regarding `CNc1ncccc1CNc1ccc(Cc2c[nH]c3ncncc23)c(F)n1` [P-0066, [6-Fluoro-5-(7H-pyrrolo[2,3-d]pyrimidin-5-ylmethyl)-pyridin-2-yl]-(2-methylamino-pyridin-3-ylmethyl)-amine], the IC50 on Fms and at Kdr was not above 10 µM in each case.

As for `Cc1ncc(CNc2ccc(Cc3c[nH]c4ncncc34)c(F)n2)cn1` [P-0048, [6-Fluoro-5-(7H-pyrrolo[2,3-d]pyrimidin-5-ylmethyl)-pyridin-2-yl]-(2-methyl-pyrimidin-5-ylmethyl)-amine], on Fms, the IC50 was not above 10 µM.

In the case of `c1ccc(CNc2ncc(Cc3c[nH]c4ncncc34)cn2)nc1` [P-0028, Pyridin-2-ylmethyl-[5-(7H-pyrrolo[2,3-d]pyrimidin-5-ylmethyl)-pyrimidin-2-yl]-amine], the IC50 at Fms is not above 10 µM.

With `Cc1cc(CNc2ccc(Cc3c[nH]c4ncncc34)c(F)n2)ccn1` [P-0020, [6-Fluoro-5-(7H-pyrrolo[2,3-d]pyrimidin-5-ylmethyl)-pyridin-2-yl]-(2-methyl-pyridin-4-ylmethyl)-amine], the IC50 at Fms and at Kdr was not above 10 µM throughout.

With `COc1cc(CNc2ncc(Cc3c[nH]c4ncncc34)cn2)c(F)cn1` [P-0025, (5-Fluoro-2-methoxy-pyridin-4-ylmethyl)-[5-(7H-pyrrolo[2,3-d]pyrimidin-5-ylmethyl)-pyrimidin-2-yl]-amine], the half-maximal inhibitory concentration (IC50) at Fms and at Kdr was not above 10 µM each time.

Consider `Fc1nc(NCc2ccnc(N3CCCC3)c2)ccc1Cc1c[nH]c2ncncc12` [P-0059, [6-Fluoro-5-(7H-pyrrolo[2,3-d]pyrimidin-5-ylmethyl)-pyridin-2-yl]-(2-pyrrolidin-1-yl-pyridin-4-ylmethyl)-amine], for which the IC50 at Fms and on Kdr was not above 10 µM each time.

Consider `Fc1cnccc1CNc1ccc(Cc2c[nH]c3ncncc23)c(F)n1` [P-0049, (3-Fluoro-pyridin-4-ylmethyl)-[6-fluoro-5-(7H-pyrrolo[2,3-d]pyrimidin-5-ylmethyl)-pyridin-2-yl]-amine], for which, on Fms, the concentration for half-maximal inhibition (IC50) was not above 10 µM.

As to `Cc1ccnc(CNc2ccc(Cc3c[nH]c4ncncc34)c(F)n2)c1` [P-0058, [6-Fluoro-5-(7H-pyrrolo[2,3-d]pyrimidin-5-ylmethyl)-pyridin-2-yl]-(4-methyl-pyridin-2-ylmethyl)-amine], the IC50 at Fms and at Kdr was not above 10 µM each time.

For `COc1ccc(CNc2ccc(C(=O)c3c[nH]c4ncncc34)c(C)n2)cn1` [P-0019, {6-[(6-Methoxy-pyridin-3-ylmethyl)-amino]-2-methyl-pyridin-3-yl}-(7H-pyrrolo[2,3-d]pyrimidin-5-yl)-methanone], the IC50 on Fms is not above 10 µM.

As to `Cc1cnccc1CNc1ccc(Cc2c[nH]c3ncncc23)c(F)n1` [P-0055, [6-Fluoro-5-(7H-pyrrolo[2,3-d]pyrimidin-5-ylmethyl)-pyridin-2-yl]-(3-methyl-pyridin-4-ylmethyl)-amine], at Fms, the IC50 is not above 10 µM.

On to `Fc1nc(NCc2ccncc2Br)ccc1Cc1c[nH]c2ncncc12` [P-0046, (3-Bromo-pyridin-4-ylmethyl)-[6-fluoro-5-(7H-pyrrolo[2,3-d]pyrimidin-5-ylmethyl)-pyridin-2-yl]-amine], for which the IC50 on Fms and at Kdr was not above 10 µM throughout.
